pKi: −log10 of the molar value. Converted amounts (≈) assume the structure as drawn.
target: T1, bacterial DHFR (bDHFR) (Escherichia coli, UniProt P0ABQ4); assay: DHFR enzyme assay, Ki determination, bacterial DHFR; format: biochemical, E. coli; settings: Table 3; read-out: bDHFR Ki
T1 construct: gift of Eric Brown, McMaster University
Method: Human and Bacterial DHFR: E. coli DHFR was kindly provided by Eric Brown of MacMaster University.
(§1) Dihydrofolic acid and NADPH were purchased from Sigma. Enzyme assays were adapted for microtitre format from a previously published procedure (2, 3). All assays were performed in a 250 μl volume in 96-well microtitre plates. Typical assays consisted of 20 nM DHFR (human or E. coli), 100 μM NADPH, and 50 μM dihydrofolic acid in 100 mM HEPES pH 8, 10 mM KCl, and 10 mM MgCl2. The assay was monitored spectrophotometrically for the conversion of NADPH to NADP+, which results in a decrease in absorbance at 340 nm.
(§2) The reaction was initiated by the addition of 125 μl of 100 μM dihydrofolic acid. The final concentrations in the assay were 20 nM DHFR, 100 μM NADPH, 50 μM dihydrofolic acid, and a range of 500 μM to 20 nM inhibitor compound. The final DMSO concentration was 2% of the total volume. Reactions were monitored as described above.

| Structure (SMILES) | pKi |
| --- | --- |
| Nc1nc(N)c2cnc(NCc3ccc(Oc4ccc(F)cc4)cc3)nc2n1 [Compound 66] | > 6.00 |
| CN(Cc1cnc2nc(N)nc(N)c2n1)c1ccc(C(=O)NCCCCN)cc1 [Compound 2] | 6.30 to 7.00 |
| Nc1nc(N)c2nc(COc3cc([N+](=O)[O-])ccc3N)cnc2n1 [Compound 13] | 6.00 to 6.30 |
| C[C@H](c1cccc2ccccc12)N(C)c1ncc2c(N)nc(N)nc2n1 [Compound 22] | > 8.70 |

same assay, conditions: average; read-out: bDHFR Ki/(μM) avg

| Structure (SMILES) | Ki [µM] |
| --- | --- |
| C[C@H](c1csc2ccccc12)N(CC1CC1)c1ncc2c(N)nc(N)nc2n1 [Compound 59] | 0.005 |
| CCc1ccc2ccc(C(C)N(CC3CC3)c3ncc4c(N)nc(N)nc4n3)cc2c1 (stereo not drawn) [Compound 53] | 0.03 |
| CCCOCCN(c1ncc2c(N)nc(N)nc2n1)C(C)c1cccc2ccccc12 (stereo not drawn) [Compound 49] | 0.02 |
| CC(c1ccc(Cl)c2ccccc12)N(C)c1ncc2c(N)nc(N)nc2n1 (stereo not drawn) [Compound 30] | 0.028 |
| CC(c1ccc(Cl)c2ccccc12)N(CC1CC1)c1ncc2c(N)nc(N)nc2n1 (stereo not drawn) [Compound 55] | 0.019 |
| CC(c1cccc2ccccc12)N(CCc1ccc(Cl)cc1)c1ncc2c(N)nc(N)nc2n1 (stereo not drawn) [Compound 57] | 0.011 |
| CCOc1ccc2ccccc2c1CN(C)c1ncc2c(N)nc(N)nc2n1 [Compound 29] | 0.02 |
| Nc1nc(N)c2nc(CNc3cccc(OCc4ccccc4)c3)cnc2n1 [Compound 20] | 0.062 |
| Cc1[nH]ncc1CCCN(c1ncc2c(N)nc(N)nc2n1)C(C)c1cccc2ccccc12 (stereo not drawn) [Compound 51] | 0.022 |
| CC(c1ccc2c3c(cccc13)CC2)N(C)c1ncc2c(N)nc(N)nc2n1 (stereo not drawn) [Compound 28] | 0.02 |
| CC(c1ccc(F)c2ccccc12)N(C)c1ncc2c(N)nc(N)nc2n1 (stereo not drawn) [Compound 23] | 0.027 |
| CCN(c1ncc2c(N)nc(N)nc2n1)[C@H](C)c1csc2ccccc12 [Compound 36] | 0.005 |
| CC(c1c2c(cc3ccccc13)CCCC2)N(C)c1ncc2c(N)nc(N)nc2n1 (stereo not drawn) [Compound 27] | 0.008 |
| CCCN(Cc1cnc2nc(N)nc(N)c2n1)c1ccccc1 [Compound 61] | 0.013 |
| C[C@H](c1cccc2ccccc12)N(C)c1ncc2c(N)nc(N)nc2n1 [Compound 22] | 0.002 |
| CCC(c1cccc2ccccc12)N(C)c1ncc2c(N)nc(N)nc2n1 (single isomer, unassigned) [Compound 41] | 0.037 |
| CC(c1cccc2ccccc12)N(CCc1ccccc1)c1ncc2c(N)nc(N)nc2n1 (stereo not drawn) [Compound 26] | 0.02 |
| CCN(c1ncc2c(N)nc(N)nc2n1)C(C)c1ccc(C)c2ccccc12 (stereo not drawn) [Compound 50] | 0.004 |
| C[C@@H](c1ccc(F)c2ccccc12)N(C)c1ncc2c(N)nc(N)nc2n1 [Compound 38] | 0.06 |
| CC[C@H](c1cccc2ccccc12)N(C)c1ncc2c(N)nc(N)nc2n1 [Compound 42] | 0.004 |

same assay, conditions: second part of table; read-out: bDHFR

| Structure (SMILES) | pKi |
| --- | --- |
| CC(c1ccc(Cl)c2ccccc12)N(C)c1ncc2c(N)nc(N)nc2n1 (stereo not drawn) [Compound 30] | 7.62 |
| CCOc1ccc2ccccc2c1CN(C)c1ncc2c(N)nc(N)nc2n1 [Compound 29] | > 7.70 |
| CCN(c1ncc2c(N)nc(N)nc2n1)[C@H](C)c1csc2ccccc12 [Compound 36] | 8.30 |

system: S. aureus; assay: Microdilution antimicrobial susceptibility test (MIC); format: cell-based; settings: Staphylococcus aureus; MIC, average; read-out: S. aureus (μg/ml) avg
Method: Stock solutions of tested compounds were prepared in N,N-dimethylformamide (DMF) at a concentration of 5 mg/mL. Working solutions of the tested compounds were then prepared from the stock solutions, in Mueller-Hinton broth (MHB) with a starting concentration of 64 μg/mL.
Bacterial inocula were prepared from overnight culture (i.e., one fresh colony from agar plate in 5 ml MHB; H. influenzae was grown in MHB with the addition of yeast extract, haematin, and NAD), centrifuged 2×5 min/3000 rpm (for S. pneumoniae and H. influenzae, 2×10 min/3000 rpm), and dispensed in 5 ml of fresh MHB each time, such that the bacterial suspension is diluted to obtain 100 colony forming units (cfu) in a microplate well (100 μl total volume).
Microplate wells were filled with two-fold dilutions of test compound (50 μl), starting with 64 μg/ml. Wells were then filled with 50 μl of bacterial inoculum (final volume: 100 μl/well). The plates were incubated at 37° C. for 18-24 hours (S. pneumoniae was grown in a CO2-enriched atmosphere).

| Structure (SMILES) | MIC [µg/mL] |
| --- | --- |
| C[C@H](c1csc2ccccc12)N(CC1CC1)c1ncc2c(N)nc(N)nc2n1 [Compound 59] | 2 (≈ 5.11 µM) |
| CCc1ccc2ccc(C(C)N(CC3CC3)c3ncc4c(N)nc(N)nc4n3)cc2c1 (stereo not drawn) [Compound 53] | 2 (≈ 4.84 µM) |
| CCCOCCN(c1ncc2c(N)nc(N)nc2n1)C(C)c1cccc2ccccc12 (stereo not drawn) [Compound 49] | 2 (≈ 4.79 µM) |
| CC(c1ccc(Cl)c2ccccc12)N(C)c1ncc2c(N)nc(N)nc2n1 (stereo not drawn) [Compound 30] | < 0.125 |
| CC(c1ccc(Cl)c2ccccc12)N(CC1CC1)c1ncc2c(N)nc(N)nc2n1 (stereo not drawn) [Compound 55] | 2 (≈ 4.76 µM) |
| CC(c1cccc2ccccc12)N(CCc1ccc(Cl)cc1)c1ncc2c(N)nc(N)nc2n1 (stereo not drawn) [Compound 57] | 2 (≈ 4.26 µM) |
| CCOc1ccc2ccccc2c1CN(C)c1ncc2c(N)nc(N)nc2n1 [Compound 29] | < 0.125 |
| Nc1nc(N)c2nc(CNc3cccc(OCc4ccccc4)c3)cnc2n1 [Compound 20] | 0.5 (≈ 1.34 µM) |
| Cc1[nH]ncc1CCCN(c1ncc2c(N)nc(N)nc2n1)C(C)c1cccc2ccccc12 (stereo not drawn) [Compound 51] | 2 (≈ 4.41 µM) |
| CC(c1ccc2c3c(cccc13)CC2)N(C)c1ncc2c(N)nc(N)nc2n1 (stereo not drawn) [Compound 28] | < 0.125 |
| CC(c1ccc(F)c2ccccc12)N(C)c1ncc2c(N)nc(N)nc2n1 (stereo not drawn) [Compound 23] | 1 (≈ 2.75 µM) |
| CCN(c1ncc2c(N)nc(N)nc2n1)[C@H](C)c1csc2ccccc12 [Compound 36] | < 0.125 |
| CC(c1c2c(cc3ccccc13)CCCC2)N(C)c1ncc2c(N)nc(N)nc2n1 (stereo not drawn) [Compound 27] | 0.5 (≈ 1.25 µM) |
| CCCN(Cc1cnc2nc(N)nc(N)c2n1)c1ccccc1 [Compound 61] | 2 (≈ 6.46 µM) |
| C[C@H](c1cccc2ccccc12)N(C)c1ncc2c(N)nc(N)nc2n1 [Compound 22] | < 0.125 |
| CCC(c1cccc2ccccc12)N(C)c1ncc2c(N)nc(N)nc2n1 (single isomer, unassigned) [Compound 41] | < 0.125 |
| CC(c1cccc2ccccc12)N(CCc1ccccc1)c1ncc2c(N)nc(N)nc2n1 (stereo not drawn) [Compound 26] | 1 (≈ 2.3 µM) |
| CCN(c1ncc2c(N)nc(N)nc2n1)C(C)c1ccc(C)c2ccccc12 (stereo not drawn) [Compound 50] | 2 (≈ 5.36 µM) |
| C[C@@H](c1ccc(F)c2ccccc12)N(C)c1ncc2c(N)nc(N)nc2n1 [Compound 38] | 0.5 (≈ 1.38 µM) |
| CC[C@H](c1cccc2ccccc12)N(C)c1ncc2c(N)nc(N)nc2n1 [Compound 42] | < 0.125 |

target: T2, human DHFR (hDHFR) (Homo sapiens, UniProt P00374); assay: DHFR enzyme assay, Ki determination, human DHFR; format: biochemical; settings: Table 3
T2 construct: result in the amplification of a 186 amino acid hDHFR coding region; made in house; host or cells: E. coli Top10
T2 sequence (P00374 1-187): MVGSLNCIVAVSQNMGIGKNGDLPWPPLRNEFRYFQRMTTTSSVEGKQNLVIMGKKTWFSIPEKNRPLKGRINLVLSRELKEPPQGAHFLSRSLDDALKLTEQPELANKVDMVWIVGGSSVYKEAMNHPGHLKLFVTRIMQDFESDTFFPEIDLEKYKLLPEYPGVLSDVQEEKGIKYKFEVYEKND
Method: The human DHFR cDNA was cloned by PCR from the Human Universal Quick-clone™ cDNA purchased from Clontech.
The PCR fragment was digested with restriction enzymes NdeI and HindIII, and then ligated into a derivative of the pKK223-3 expression vector (Amersham Pharmacia). The final expression vector (pFW96.2) was transformed into E. coli Top10 F40 and hDHFR protein was induced by the addition of 1 mM IPTG followed by incubation at 37° C. for 4 hrs. Recombinant human DHFR was purified based on a previously published procedure (2).
as §1
as §2, with “Five microliters of inhibitor compound in DMSO was added to 120 μl of enzyme solution (40 nM DHFR and 200 μM NADPH). The reaction” for “The reaction”
V=(Vmax[S])/(Km(1+I/Ki)+[S]), where S=dihydrofolate, Km=Michaelis constant for dihydrofolate, I=inhibitor concentration.

| Structure (SMILES) | pKi |
| --- | --- |
| Nc1nc(N)c2cnc(NCc3ccc(Oc4ccc(F)cc4)cc3)nc2n1 [Compound 66] | < 3.30 |
| CN(Cc1cnc2nc(N)nc(N)c2n1)c1ccc(C(=O)NCCCCN)cc1 [Compound 2] | 5.30 to 6.00 |
| Nc1nc(N)c2nc(COc3cc([N+](=O)[O-])ccc3N)cnc2n1 [Compound 13] | < 5.30 |
| C[C@H](c1cccc2ccccc12)N(C)c1ncc2c(N)nc(N)nc2n1 [Compound 22] | < 4.12 |
